Test [1] concerns LAPC4 xenografts grown in orchiectomized mice. In words: Xenograft cortisol metabolism: [3H]-cortisol inactivation in freshly harvested tumors. The class given is in vivo, mouse. The note with it: CRPC xenograft tumors from enzalutamide-treated mice vs orchiectomy alone. How it is done:
Xenograft metabolism. LAPC4 cells (˜10^7) were injected subcutaneously with Matrigel (Corning) into surgically orchiectomized NSG mice that were implanted with DHEA pellets (5 mg/pellet, 90-day sustained-release, Innovative Research of America). Fresh xenografts were harvested and ˜40 mg xenograft tissues were minced, and cultured in IMEM with 10% FBS at 37° C. with a mixture of [^3H]-cortisol and non-radiolabeled cortisol. Aliquots of media were collected at the indicated time points, steroids were extracted and concentrated as described above.

The test system of test [2] is LAPC4 and VCaP CRPC xenografts. As to the kind of experiment: Mouse xenograft studies: tumor growth and progression-free survival. In kind it is in vivo. How it is done: All mouse studies were performed under a protocol approved by the Institutional Animal Care and Use Committee (IACUC) of the Cleveland Clinic Lerner Research Institute. All NSG male mice (6-8 weeks old) were purchased from the Jackson Laboratory and the number of mice used in this study was based on previously published mouse xenograft studies by our lab that determined effects of steroid pathway inhibition/augmentation on xenograft growth. Mice were surgically orchiectomized and implanted with DHEA pellets to mimic human adrenal DHEA production in patients with CRPC. 1 week later, mice were prepared for cell injections.
For the evaluation of the 11β-HSD2 role in reversing enzalutamide resistance, either 10^7 vector control or 10^7 11β-HSD2 overexpressing LAPC4 or VCaP cells (100 μl in 50% matrigel and 50% growth media) were subcutaneously injected into mice. When tumors reached 100 or 150 mm^3 (length×width×height×0.52), for LAPC4 and VCaP xenografts, respectively, the mice were arbitrarily divided into 2 groups each for vector and 11β-HSD2 overexpressing cells: Enz diet 62.5 mg/kg and or chow alone groups. Tran et al., Science 324, 787-790 (2009). Based on the daily chow consumption, approximately 0.3125 mg Enz was consumed per mouse per day. Enz in chow and chow alone were obtained from Medivation. Tumor volume was measured every other day, and progression-free survival was assessed as time to 3-fold (LAPC4) or 1.5-fold (VCaP) increase in tumor volume (from 100 or 150 mm^3) from the time Enz or chow alone was initiated. The number of mice in the LAPC4 Vector/Ctrl, Vector/Enz, 11β-HSD2/Ctrl and 11β-HSD2/Enz groups were 9, 9, 10, and 11, respectively. The number of mice in the VCaP Vector/Ctrl, Vector/Enz, 11β-HSD2/Ctrl and 11β-HSD2/Enz groups were 6, 6, 5, and 8, respectively. Numbers of mice in each treatment group were determined by those that survived surgical procedures and had reached a tumor volume to initiate treatment.
For evaluation of the role of AMFR in reversing enzalutamide resistance, either 10^7 control or 10^7 AMFR knockdown LAPC4 cells (100 μl in 50% matrigel and 50% growth media) were subcutaneously injected into mice. The remaining procedures were performed as described above. The number of mice in the LAPC4 shCtrl/Enz and shAMFR/Enz groups were 6, and 10, respectively. Protein levels of 11β-HSD2 in the shCtrl and control or shAMFR LAPC4 xenografts were analyzed by immunoblot. Briefly, ˜40-50 mg xenograft tissue was minced into pieces and then added into soft tissue homogenizing CK14 tubes (Betin Technologies) with 150 μl RIPA buffer containing protease inhibitors. Xenograft tissues were homogenized with a homogenizer (Minilys, Betin Technologies) 6 times (40 seconds each time) at the highest speed. Tubes were incubated on the ice for 5-10 minutes between each homogenization to cool lysates. The lysates were then centrifuged for 30 minutes at 15,000×g and the supernatants were used for immunoblot analysis.

Test [3] concerns tumor corticosterone. As to the kind of experiment: Mass spectrometry of corticosterone in xenograft tumors. The class given is in vivo, mouse. How it is done:
Xenograft analysis. At least 24 mg tumor tissue (n=18) was homogenized with 1 ml LC-MS grade water (Fisher) by using homogenizer. The mixture was then centrifuged. 800 μl of the supernatant was transferred to a glass tube, followed by the addition of 80 μl of 10 ng/ml internal standard (corticosterone-d8) (Steraloids). The steroids and the internal standard were extracted with methyl tert butyl ether (Across) evaporated to dryness under N2 then reconstituted with 500 μl of 50% methanol.
The LC-MS/MS system contains an ultra-pressure liquid chromatography system (Shimadzu Corporation, Japan) which is consisted of two LC-30AD pumps, a DGU-20A5R degasser, a CTO-30A column oven, SIL-30AC autosampler, and a system controller CBM-20A and coupled with a Qtrap 5500 mass spectrometer (AB Sciex). Data acquisition and processing were performed using Analyst® software (version 1.6.2) from ABSciex.
Steroids were ionized using electrospray ionization in positive mode. Quantification of analytes was performed using multiple reaction monitoring. The mass transitions for corticosterone, 11-dehydrocorticosterone, and internal standard are 347.3/121.0, 345.3/121.0, and 355.3/125.0, respectively. Separation of steroids was achieved using a Zorbax Eclipse plus C18 column (Agilent) using mobile phase consisting of (A) 0.2% formic acid in water and (B) 0.2% formic acid in (methanol:acetonitrile, 60:40) with a gradient program at a flow rate of 0.2 ml/min. Sample injection volume was 10 μl.

The test system of test [4] is AMFR. As to the kind of experiment: Immunoblot of AMFR. In kind it is cell-based, human. The note with it: enzalutamide treatment, LAPC4 cells and patient tissues. How it is done:
For protein analysis, immunoblots were performed as described previously. Li et al., J Clin Endocrinol Metab 98, E1189-1197 (2013). Briefly, total cellular protein was extracted with ice cold RIPA lysis buffer (Sigma-Aldrich) containing protease inhibitors (Roche). 30-50 μg protein was separated by 8% SDS-PAGE gel and then transferred to a nitrocellulose membrane (Millipore). After incubating with the anti-11β-HSD2 antibody (Santa Cruz; 1:3000), anti-11β-HSD1 antibody (Santa Cruz; 1:1000), GR antibody (BD Biosciences; 1:1000), anti-Erlin-2 antibody (Cell Signaling Technology: 1:1000) or anti-AMFR antibody (Proteintech; 1:1000) overnight at 4° C., the appropriate secondary antibody was incubated for 1 hour at room temperature. The chemiluminescent detection system (Thermo Scientific) was used to detect the bands with peroxidase activity. An anti-β-actin antibody (Sigma-Aldrich; 1:5000) was used as a control for sample loading.
In general terms: In western blotting, separated proteins are transferred to a membrane and probed.

Setting [5] is: LAPC4 xenografts with forced 11β-HSD2 expression, enzalutamide in chow.
The mark [6] stands for this setting: enzalutamide-treated LAPC4 xenografts with stable AMFR knockdown.
Setting [7] is: enzalutamide-treated 11β-HSD2 tumors.
[8] abbreviates: enzalutamide-treated vector tumors.

Data on 1 compound can be found in patent US20180296531A1, “STIMULATION OF 11B-HSD2 EXPRESSION TO IMPROVE HORMONAL THERAPY OF STEROID-DEPENDENT DISEASE” (THE CLEVELAND CLINIC FOUNDATION, priority 2015, published 2018).

Take `CNC(=O)c1ccc(N2C(=S)N(c3ccc(C#N)c(C(F)(F)F)c3)C(=O)C2(C)C)cc1F` [enzalutamide]: in test [1], the “inactivation of [3H]-cortisol by conversion to cortisone” value is “impaired capability of inactivating [^3H]-cortisol”. Also, the xenograft tumor growth result in test [2] (LAPC4 Vector xenografts, orchiectomized mice with DHEA, enzalutamide in chow) is on record as “growth of Vector xenografts through enzalutamide therapy”; in test [2] (setting [5]), “significantly reversed enzalutamide-resistant growth”; in test [2] (setting [6]), “suppressed xenograft growth”. The progression-free survival result in test [2] (setting [5]) and in test [2] (setting [6]) was “prolonged progression-free survival” throughout. Further, in test [2] (VCaP xenografts with 11β-HSD2 expression), the “sensitivity of xenograft to treatment” value is listed as “Reinstatement of sensitivity to enzalutamide treatment”. Moreover, the “percentage of tumor corticosterone of corticosterone plus 11-dehydrocorticosterone” value is recorded as 33% in test [3] (setting [7]) and 59% in test [3] (setting [8]). Also, the tumor corticosterone concentration in test [3] (setting [7]) is 15.1 pmol/g; in test [3] (setting [8]) it was 44.5 pmol/g. Besides, in test [4], the AMFR expression entry is “did not consistently increase AMFR expression”.
